Results on 4 compounds are retold here after patent publication US20040092566A1, “Celecoxib prodrug” (priority 2002, published 2004).

One series has as its target COX-1 (Homo sapiens, UniProt P23219). As to conditions: background statement; cited from earlier work.

Molecules are shown by their SMILES.

For orientation: melting point means the temperature, or range, at which the solid turns liquid.

COX-1, sequence (P23219 24-599): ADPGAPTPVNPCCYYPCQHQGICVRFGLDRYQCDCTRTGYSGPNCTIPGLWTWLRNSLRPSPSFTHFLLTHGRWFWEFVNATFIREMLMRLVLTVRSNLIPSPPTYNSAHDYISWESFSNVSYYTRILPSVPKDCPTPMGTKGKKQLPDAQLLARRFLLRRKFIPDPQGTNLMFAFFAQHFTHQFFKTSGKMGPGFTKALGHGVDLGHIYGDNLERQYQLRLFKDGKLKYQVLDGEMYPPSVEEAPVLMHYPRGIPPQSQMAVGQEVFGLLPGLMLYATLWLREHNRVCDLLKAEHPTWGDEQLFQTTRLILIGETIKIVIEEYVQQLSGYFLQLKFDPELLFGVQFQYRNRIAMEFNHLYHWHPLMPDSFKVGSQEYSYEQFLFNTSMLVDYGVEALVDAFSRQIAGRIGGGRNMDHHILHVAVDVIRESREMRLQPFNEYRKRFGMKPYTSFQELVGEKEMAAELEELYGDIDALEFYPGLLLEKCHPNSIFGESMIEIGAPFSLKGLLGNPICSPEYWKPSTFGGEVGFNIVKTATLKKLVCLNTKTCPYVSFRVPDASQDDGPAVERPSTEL

As for `CCC(=O)NS(=O)(=O)c1ccc(-c2c(-c3ccccc3)noc2C)cc1` [Parecoxib], the “in vitro inhibitory activity against COX-1” value at COX-1 was “weak”.
As for `CCC(=O)NS(=O)(=O)c1ccc(-n2nc(C(F)(F)F)cc2-c2ccc(C)cc2)cc1` [compound (V), N-[[4-[5-(4-methylphenyl)-3-(trifluoromethyl)-1H-pyrazol-1-yl]phenyl]-sulfonyl]propanamide], the melting point lay within 88.3 to 96.7 °C.
Same read-out and setting: under `CCC(=O)[N-]S(=O)(=O)c1ccc(-n2nc(C(F)(F)F)cc2-c2ccc(C)cc2)cc1.[Na+]` [compound Z, 4-[5-(4-methylphenyl)-3-(trifluoromethyl)-1H-pyrazol-1-yl]-N-propionylbenzenesulfonamide, sodium salt] stands greater than 300 °C.
As for `Cc1onc(-c2ccccc2)c1-c1ccc(S(N)(=O)=O)cc1` [valdecoxib], the “in vitro inhibitory activity against COX-1” value on COX-1 is on record as “weak”.
